Values of other authors in US11491120B2, “Pharmacological prophylactics against stress-induced affective disorders in females” (The Trustees of Columbia University in the City of New York, priority 2017, dated 2022).

System: NMDAR
Conditions: cited from earlier work

CN[C@]1(c2ccccc2Cl)CCCCC1=O [(S)-ketamine]
Antagonism of the NMDAR, relative strength: four-fold stronger antagonist
